Experimental data as given in the METLIN SMRT retention time set (Domingo-Almenara et al. 2019).

Assay: gradient 5% acetonitrile 3 min, to 50% in 2 min, to 85% in 15 min, held 3 min, 100 µL/min
Conditions: column: Zorbax Extend-C18 2.1 x 50 mm; eluents: water / acetonitrile, 0.1% formic acid
Procedure, shortened: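 Each retention time is based on an adduct peak selected computationally and verified by manual inspection. Measurements used HPLC–quadrupole time-of-flight mass spectrometry in positive and negative ionization mode on mixtures of ~100 pure standards. Chromatography ran on a Zorbax Extend-C18 column (2.1 × 50 mm, 1.8 μm) at 100 μL/min with water and acetonitrile, each containing 0.1% formic acid, and dead and dwell volumes of 40 μL and 900 μL.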

RP-LC retention time [s]	SMILES
588	CCN(CC)c1ccc(CNC(=O)C2CCc3nc(N4CCOCC4)ncc3C2)cc1 (stereo not drawn)
725	CCOC(=O)Cn1c(C2CC(=O)N(c3cc(OC)ccc3OC)C2)nc2ccccc21 (stereo not drawn)
683	COC(=O)c1cccc(NS(=O)(=O)c2cc3n(c2)CCN(C)C3=O)c1
1130	CCc1cccc(NS(=O)(=O)c2c(C)sc(C)c2-c2cc(C)[nH]n2)c1
1110	CCCCc1ccc(Nc2nc(C(=O)OCC)nc3ccccc23)cc1
824	Cc1cc(N2CCC(NC(=O)Nc3ccccc3)C2=O)ccc1F (stereo not drawn)
745	COc1cccc(NC(=O)Cn2nc3c(N(C)C4CCCCC4)nccn3c2=O)c1
1160	Cc1cc(NC(=O)c2c(O)c3cccnc3n(-c3ccccc3)c2=O)ccc1F
558	Cc1ccccc1OCC(=O)NCCN1CCN(S(C)(=O)=O)CC1
1050	O=C(Cn1cnc2c(sc3nc(-c4ccccc4)ccc32)c1=O)Nc1ccc(F)cc1Cl
1170	CCCn1ccc2oc(C)c(C(=O)NCc3ccc(CC)cc3)c2c1=O
686	CCCn1ncc(N2CCC(C(=O)NCc3cccs3)CC2)cc1=O
864	O=C(c1ccccc1Cl)N1CCC(Cc2nnc(-c3ccccc3)o2)CC1
650	CO[C@H]1C(=O)N(C(C)C)[C@H]1C1CCN(C(=O)c2sc(C)nc2C)CC1
802	CCSc1nnc(NC(=O)c2ccc(OC)c([N+](=O)[O-])c2)s1
770	O=C1NC2(CCN(C(=O)NCc3ccc(F)cc3)CC2)Nc2c(Cl)cccc21
547	Cc1nnc(-c2ccncc2)o1
891	O=C(Cc1csc(NC(=O)Nc2ccccc2)n1)NCCc1c[nH]c2ccccc12
687	Cc1nn(-c2ccccc2)c(C)c1/C=N/N1CCN(Cc2ccccc2)CC1
819	CCCCCC(=O)C(=O)c1ccc(O)cc1O
640	CCN1CCN(c2c(S(=O)(=O)c3ccc(OC)cc3)cnc3ccc(OC)cc23)CC1
660	Cc1cccc(NC(=O)N2CCc3nc(-c4ccc(Cl)cc4)ncc3C2)c1C

RP-LC retention time [s]	SMILES
624	O=C(NCc1ccc(N2CCN(c3ccccn3)CC2)cc1)c1ccoc1
898	O=C(c1ccc2nsnc2c1)N(Cc1ccsc1)Cc1ccco1
824	Cc1cccc(C)c1NC(=O)C1CCN(S(=O)(=O)c2ccc3c(c2)NC(=O)C(C)O3)CC1 (stereo not drawn)
932	CCn1c(=O)sc2cc(S(=O)(=O)N3CCC(C(=O)Nc4cc(C)cc(C)c4)CC3)ccc21
726	O=C(c1cccnc1)N1CCC(c2nc(-c3ccccc3)no2)C1 (stereo not drawn)
729	Cc1c(NS(=O)(=O)CCOc2ccccc2)c(=O)n(-c2ccccc2)n1C
1070	O=c1c2sccc2n(Cc2nc(-c3ccc(Cl)cc3)no2)c(=O)n1-c1cccc(F)c1
893	COc1ccc(N2C=C(C#N)S(=O)(=O)c3ccc(F)cc32)cc1OC
809	Cc1ccc(NC(=O)N2CCC(N3CCN(Cc4ccccc4)C(=O)C3=O)CC2)cc1Cl
950	COc1ccc(-c2nnc(-c3cc(S(=O)(=O)N4CCOCC4)ccc3Cl)o2)cc1
656	O=c1c2cc(-c3ccc(F)cc3)nn2ccn1Cc1noc(CN2CCCCC2)n1
1120	O=C(Cn1cnc2c(sc3nc(-c4ccccc4)ccc32)c1=O)Nc1ccc(Br)cc1
786	O=C1NCCCCCCN(C(=O)c2ccsc2)[C@H]2CCCC[C@@H]12
667	Cc1csc(-c2cc(S(=O)(=O)NCCCN3CCOCC3)cn2CC(=O)N2CCCCC2)n1
817	COc1ccc2nc(NC(=O)CCCN3C(=O)C4C5C=CC(C5)C4C3=O)sc2c1 (stereo not drawn)
614	Cc1ccc(C)c(-n2ncc3c(N4CCN(C)CC4)ncnc32)c1
691	CCOC(=O)N1CCN(Cc2c(O)ccc3ccccc23)CC1
814	O=C(NCC1CC1)C1CCN(c2nc3ccsc3c(=O)n2Cc2ccccc2)CC1
770	CN(C)C(=O)c1csc(S(=O)(=O)N2CCC(C(=O)Nc3ccccc3F)CC2)c1
596	O=C(c1cccnc1)N1CCCCC1c1nncn1-c1ccccc1 (stereo not drawn)
842	Cc1ccc(C)c(NC(=O)NC2CCN(c3ccc(F)cc3)C2=O)c1 (stereo not drawn)
871	Cc1nc(C(=O)NCc2cccc(Cl)c2)c(C)o1

RP-LC retention time [s]	SMILES
631	COc1cc(NC(=O)NCC(c2cccnc2)c2c[nH]c3ccccc23)cc(OC)c1OC (stereo not drawn)
663	Cc1nccn1Cc1nc(-c2ccc(Br)cc2)no1
737	Cc1ccc2c(NCc3ccc4c(c3)OCO4)c(C(=O)OC(C)C)cnc2n1
850	Cc1ccc(NC(=O)C2CCCN(S(=O)(=O)c3cn(C(C)C)cn3)C2)c(Br)c1 (stereo not drawn)
562	CCC(=O)N1CCCn2nc(-c3cccnc3)cc2C1
626	Cc1nc(C)c(C(=O)N(C)C2CCc3nn(CC4CC4)c(=O)n3CC2)s1 (stereo not drawn)
902	Cc1nc(-c2ccccc2)cc2nn(CC(=O)NCc3ccc(F)cc3F)c(=O)n12
769	COc1cccc(/C=N\NC(=O)C(C)SC(C)C(=O)N/N=C/c2cccc(OC)c2)c1 (stereo not drawn)
820	CCOc1cccc(CN2C(=O)C3(CCOCC3)CC2c2nnnn2C(C)(C)C)c1 (stereo not drawn)
649	COc1ccc(CCC(=O)N2CCc3c(c(C(=O)N4CCCC(C(=O)NC5CC5)C4)nn3C)C2)cc1 (stereo not drawn)
826	COc1ccc(OC)c(NC(=O)N2C[C@@H](F)C[C@H]2C(=O)N2CCc3ccccc3C2)c1
891	Cc1ccc(CNC(=O)CN2C(=O)CCCc3cc(S(=O)(=O)N4CCCCC4)ccc32)cc1
599	O=C(NCCN1CCOCC1)c1cccc(Nc2c(-c3ccc(Cl)cc3)nc3cnccn23)c1
755	Cc1nc(C)c(C(=O)N2C[C@H]3C[C@H](C2)[C@H]2CCCC(=O)N2C3)s1
856	CC1=C(c2ccc(F)cc2)S(=O)(=O)N=C1N1CCCN(C(=O)CC(C)(C)C)CC1
1050	O=C(Cn1nc(N2CCCCCC2)c2ccccc2c1=O)Nc1ccccc1
966	CN(CCc1noc(COc2ccccc2F)n1)C(=O)Nc1ccc(F)c(Cl)c1
888	COc1cc(-c2noc(-c3nn(-c4cccc(C)c4)ccc3=O)n2)cc(OC)c1OC
580	CNC(=O)c1cc(=O)[nH]c2ccccc12
1250	CCN(CC)C(=O)COc1cc(C(F)(F)F)c2c(C)nn(-c3ccc(C)cc3)c2n1
676	COc1ccc(NC(=O)Cn2cnc3nc4c(cc3c2=O)CCCC4)cc1OC
1010	Cc1nnc(-c2ccc3ccn(CC(=O)NCc4ccccc4)c3c2)o1

RP-LC retention time [s]	SMILES
1310	CCOc1ccc(-c2csc(Cc3nc(-c4cccc(C)c4)no3)n2)cc1
647	CCC(=O)Nc1ccc(CCc2nc3ccc(C(=O)NC4CCCCC4)cc3[nH]2)cc1
1010	COc1ccc(C(=O)Nc2nccnc2C(=O)NCc2ccc(Br)cc2)cc1
943	COc1ccc(Cl)cc1N1CC(c2nc(-c3ccccc3F)no2)CC1=O (stereo not drawn)
784	CC(C)OCCCNC(=O)c1nnc(-c2ccc(S(=O)(=O)N3CCOCC3)cc2)o1
1030	COc1ccc(Cl)cc1NC(=O)NCCC1CCN(S(=O)(=O)c2ccc(F)cc2)CC1
678	CC1CN=C2C(N3CCN(C(=O)c4ccc(C#N)cc4)CC3)=NC=CN21 (stereo not drawn)
1070	COc1ccc(OC)c(NC(=O)N2CCN(c3nc4ccccc4nc3C(F)(F)F)CC2)c1
908	CC1(C)CC(=O)C2=C(C1)N(CC1CCCO1)C(=O)C2(NC(=O)c1ccccc1F)C(F)(F)F (stereo not drawn)
706	O=C(Cn1cccc(-c2nc(-c3ccc(F)cc3)no2)c1=O)NCC1CCCO1 (stereo not drawn)
646	CCOc1nc2ccccc2nc1N1CCCC(C(=O)N2CCN(C)CC2)C1 (stereo not drawn)
680	Cc1ccc(CNC(=O)c2cc(NC(=O)C(C)C)cc3nc(C)ccc23)cc1
930	CCS(=O)(=O)N1CC(=O)N(c2cccc(C)c2C)C(C)(C(=O)NC2CCCCCC2)C1 (stereo not drawn)
683	Cc1cccc(NC(=O)N2CCCC(Cn3c(C4CC4)nc4cccnc43)C2)c1C (stereo not drawn)
806	CC(Cc1ccco1)NC(=O)c1ccc2ccnc(N3CCN(c4ccccc4)CC3)c2c1 (stereo not drawn)
672	Cc1[nH]c(=O)[nH]c(=O)c1CCC(=O)Nc1cccc(-c2nc3ccccc3s2)c1
574	COc1ccc(NC(=O)c2cn3c(n2)CCCC3)cc1
928	CCN1C(=O)COc2ccc(-c3csc(NC(=O)CC(C)C)n3)cc21
735	COCCN1CCn2cc(S(=O)(=O)NCc3ccc(F)cc3Cl)cc2C1=O
891	Clc1ccc(-c2nc3cnccn3c2Nc2ccc3c(c2)OCCO3)cc1
1040	COc1ccc(NC(=O)Cn2c(C)nc3c(sc4nc(-c5ccccc5)ccc43)c2=O)c(OC)c1
1070	COc1cc(NC(=O)CCc2nc(-c3ccc(N4CCCC4)cc3)no2)cc(OC)c1
